The text below walks through data of patent US9637483B2, “Heterocyclic compound” (TAKEDA PHARMACEUTICAL COMPANY LIMITED, priority 2013, dated 2017).

Assay type in all cases: biochemical
One experiment has as its target T1, JAK2 (Homo sapiens, UniProt O60674).
T1 construct: purchased Invitrogen
The experiment can be described thus: JAK2 enzyme inhibition test (LANCE method). The following applies: 1 μM test compound; for inhibition at 1 µM: read-out: JAK2 enzyme inhibitory activity (%, 1 μM). The procedure, abridged:
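TR-FRET (LANCE) read-out, ex 340/em 665 nm with 100 μs delay, after 1 hr room-temperature detection with europium anti-phosphotyrosine antibody and 20 mM EDTA. The preceding 1 hr kinase reaction combined JAK2, ULight-JAK1 substrate and ATP, added as 6 ng/mL, 300 nM and 45 μM solutions; enzyme-free wells defined 100% inhibition.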
Background: In TR-FRET formats the signal depends on donor and acceptor labels being close together.

Another experiment addresses T2, JAK1 (Homo sapiens, UniProt P23458).
T2 construct: purchased Invitrogen
The experiment can be described thus: JAK1 enzyme inhibition test (LANCE method). The settings on record: 1 μM test compound; for inhibition at 1 µM: read-out: JAK1 enzyme inhibitory activity (%, 1 μM). Put shortly:
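Inhibition expressed against no-enzyme wells (100% inhibition), from time-resolved fluorescence at 665 nm after Eu-anti-phosphotyrosine antibody/EDTA detection. Kinase reaction ran 1 h at room temperature, pH 7.5 HEPES buffer, ULight-JAK1 substrate and ATP diluted to 300 nM and 150 μM before addition.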

A further experiment has as its target T3, TYK2 (Homo sapiens, UniProt P29597).
T3 construct: purchased Invitrogen
In words: TYK2 enzyme inhibition test (LANCE method). The following applies: 1 μM test compound; for inhibition at 1 µM: read-out: TYK2 enzyme inhibitory activity (%, 1 μM). Put shortly:
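TR-FRET (LANCE) readout: after 1 h room-temperature kinase reaction, EDTA plus 4 nM Eu-labelled anti-phosphotyrosine antibody added, signal at 665 nm (340 nm excitation). Reaction combined TYK2, ULight-JAK1 substrate and ATP, prepared at 375 ng/mL, 300 nM and 30 μM before addition, in pH 7.5 HEPES/MgCl2 buffer; enzyme-free wells define full inhibition.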

Another experiment deals with T4, JAK3 (Homo sapiens, UniProt P52333).
T4 construct: purchased Invitrogen
T4 sequence (P52333 1-1124): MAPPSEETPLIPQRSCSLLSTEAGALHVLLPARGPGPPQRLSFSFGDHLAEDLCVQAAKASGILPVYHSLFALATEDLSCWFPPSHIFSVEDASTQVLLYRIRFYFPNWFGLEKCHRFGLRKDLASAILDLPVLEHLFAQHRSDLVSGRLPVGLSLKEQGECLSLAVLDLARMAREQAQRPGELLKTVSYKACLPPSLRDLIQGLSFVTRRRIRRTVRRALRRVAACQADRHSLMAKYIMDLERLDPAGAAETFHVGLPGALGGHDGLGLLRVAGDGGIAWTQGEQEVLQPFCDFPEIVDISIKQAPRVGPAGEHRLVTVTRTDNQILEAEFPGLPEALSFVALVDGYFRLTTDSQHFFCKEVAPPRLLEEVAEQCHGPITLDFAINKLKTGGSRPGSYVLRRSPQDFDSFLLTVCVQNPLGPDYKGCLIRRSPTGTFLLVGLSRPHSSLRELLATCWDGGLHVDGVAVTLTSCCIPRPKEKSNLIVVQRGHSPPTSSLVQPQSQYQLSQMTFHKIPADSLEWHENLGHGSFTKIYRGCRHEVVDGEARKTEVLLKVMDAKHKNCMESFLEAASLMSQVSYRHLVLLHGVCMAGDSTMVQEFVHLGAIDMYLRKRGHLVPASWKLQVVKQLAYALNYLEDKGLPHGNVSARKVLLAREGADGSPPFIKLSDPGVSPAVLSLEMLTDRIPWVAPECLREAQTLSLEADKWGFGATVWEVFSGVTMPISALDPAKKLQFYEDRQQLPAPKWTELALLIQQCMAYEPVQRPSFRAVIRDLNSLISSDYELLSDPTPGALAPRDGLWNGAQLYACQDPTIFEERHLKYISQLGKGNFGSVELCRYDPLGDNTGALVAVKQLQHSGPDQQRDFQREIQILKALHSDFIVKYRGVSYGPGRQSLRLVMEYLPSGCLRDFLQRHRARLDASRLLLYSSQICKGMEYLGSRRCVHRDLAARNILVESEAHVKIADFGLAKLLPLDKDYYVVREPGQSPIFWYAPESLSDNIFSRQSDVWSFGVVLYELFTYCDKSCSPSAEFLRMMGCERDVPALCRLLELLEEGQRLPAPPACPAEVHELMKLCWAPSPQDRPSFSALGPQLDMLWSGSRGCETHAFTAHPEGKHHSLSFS
In words: JAK3 enzyme inhibition test (LANCE method). The settings on record: 1 μM test compound; for inhibition at 1 µM: read-out: JAK3 enzyme inhibitory activity (%, 1 μM). The procedure, abridged:
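TR-FRET (LANCE) read: 1 h room-temperature reaction, EDTA quench, Eu-anti-phosphotyrosine antibody, emission 665 nm after 340 nm excitation. Added solutions held 12 ng/mL JAK3, 300 nM ULight-JAK1 substrate and 15 μM ATP (pH 7.5 HEPES). Activity expressed against no-enzyme wells defined as full inhibition.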

Structures are written as SMILES.

T3 sequence (P29597 whole entry): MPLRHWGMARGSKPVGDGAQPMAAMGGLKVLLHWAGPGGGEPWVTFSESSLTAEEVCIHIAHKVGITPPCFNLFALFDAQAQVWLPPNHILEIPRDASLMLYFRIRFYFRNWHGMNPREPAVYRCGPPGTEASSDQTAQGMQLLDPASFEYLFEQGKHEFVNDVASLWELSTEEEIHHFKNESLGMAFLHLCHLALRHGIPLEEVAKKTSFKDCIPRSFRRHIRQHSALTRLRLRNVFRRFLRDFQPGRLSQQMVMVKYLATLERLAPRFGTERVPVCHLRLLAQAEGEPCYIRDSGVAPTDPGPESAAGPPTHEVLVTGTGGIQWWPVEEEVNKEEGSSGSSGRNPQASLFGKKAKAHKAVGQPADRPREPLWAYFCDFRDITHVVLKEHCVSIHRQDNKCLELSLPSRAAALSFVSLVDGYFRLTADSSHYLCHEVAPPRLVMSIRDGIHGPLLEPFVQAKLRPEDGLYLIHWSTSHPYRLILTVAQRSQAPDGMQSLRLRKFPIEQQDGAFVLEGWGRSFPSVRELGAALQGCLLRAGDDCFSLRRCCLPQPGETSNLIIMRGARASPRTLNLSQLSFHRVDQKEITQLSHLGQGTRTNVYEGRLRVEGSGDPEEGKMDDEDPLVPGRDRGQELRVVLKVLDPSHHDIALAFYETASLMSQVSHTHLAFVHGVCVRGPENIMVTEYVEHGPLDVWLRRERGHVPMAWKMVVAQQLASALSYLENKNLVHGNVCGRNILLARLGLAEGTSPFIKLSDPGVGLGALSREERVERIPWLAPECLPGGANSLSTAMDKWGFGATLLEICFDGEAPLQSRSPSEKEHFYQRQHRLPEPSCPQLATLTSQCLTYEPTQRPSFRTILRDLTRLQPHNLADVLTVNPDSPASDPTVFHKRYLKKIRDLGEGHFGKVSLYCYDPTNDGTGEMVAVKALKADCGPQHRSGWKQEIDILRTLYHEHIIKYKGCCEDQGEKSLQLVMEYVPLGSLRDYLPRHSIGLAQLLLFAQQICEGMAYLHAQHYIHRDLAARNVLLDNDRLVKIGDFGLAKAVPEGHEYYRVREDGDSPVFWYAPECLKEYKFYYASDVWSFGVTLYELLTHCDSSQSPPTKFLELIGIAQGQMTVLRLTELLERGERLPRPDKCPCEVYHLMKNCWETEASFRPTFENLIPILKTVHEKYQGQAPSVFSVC
T1 sequence (O60674 whole entry): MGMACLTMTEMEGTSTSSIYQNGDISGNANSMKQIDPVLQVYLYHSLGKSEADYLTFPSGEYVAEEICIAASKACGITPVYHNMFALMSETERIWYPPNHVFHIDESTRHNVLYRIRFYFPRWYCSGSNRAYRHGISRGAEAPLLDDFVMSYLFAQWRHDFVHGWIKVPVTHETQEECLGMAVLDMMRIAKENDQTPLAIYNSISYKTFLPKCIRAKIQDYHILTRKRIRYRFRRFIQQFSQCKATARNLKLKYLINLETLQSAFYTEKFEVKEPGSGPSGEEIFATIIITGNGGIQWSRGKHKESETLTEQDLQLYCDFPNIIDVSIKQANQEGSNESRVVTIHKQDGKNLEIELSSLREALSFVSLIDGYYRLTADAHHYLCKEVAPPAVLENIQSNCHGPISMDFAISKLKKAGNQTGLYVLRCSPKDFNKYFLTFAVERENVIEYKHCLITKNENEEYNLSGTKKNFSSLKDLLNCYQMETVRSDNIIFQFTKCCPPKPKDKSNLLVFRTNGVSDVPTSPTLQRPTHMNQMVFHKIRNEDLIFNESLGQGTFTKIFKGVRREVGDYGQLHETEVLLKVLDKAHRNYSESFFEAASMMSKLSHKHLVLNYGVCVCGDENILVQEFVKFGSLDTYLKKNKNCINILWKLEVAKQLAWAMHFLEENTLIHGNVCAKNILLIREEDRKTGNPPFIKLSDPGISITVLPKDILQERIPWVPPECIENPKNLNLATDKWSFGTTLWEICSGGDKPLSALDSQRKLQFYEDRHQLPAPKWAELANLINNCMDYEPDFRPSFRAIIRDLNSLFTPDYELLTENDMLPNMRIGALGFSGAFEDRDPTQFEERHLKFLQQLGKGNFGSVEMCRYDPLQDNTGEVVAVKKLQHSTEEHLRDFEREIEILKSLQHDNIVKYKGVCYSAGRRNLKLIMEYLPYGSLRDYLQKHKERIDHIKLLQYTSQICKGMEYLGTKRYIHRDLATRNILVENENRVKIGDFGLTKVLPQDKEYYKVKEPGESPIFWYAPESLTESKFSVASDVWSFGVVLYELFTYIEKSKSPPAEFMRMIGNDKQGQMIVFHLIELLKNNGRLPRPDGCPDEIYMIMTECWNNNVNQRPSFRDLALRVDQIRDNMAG
T2 sequence (P23458 whole entry): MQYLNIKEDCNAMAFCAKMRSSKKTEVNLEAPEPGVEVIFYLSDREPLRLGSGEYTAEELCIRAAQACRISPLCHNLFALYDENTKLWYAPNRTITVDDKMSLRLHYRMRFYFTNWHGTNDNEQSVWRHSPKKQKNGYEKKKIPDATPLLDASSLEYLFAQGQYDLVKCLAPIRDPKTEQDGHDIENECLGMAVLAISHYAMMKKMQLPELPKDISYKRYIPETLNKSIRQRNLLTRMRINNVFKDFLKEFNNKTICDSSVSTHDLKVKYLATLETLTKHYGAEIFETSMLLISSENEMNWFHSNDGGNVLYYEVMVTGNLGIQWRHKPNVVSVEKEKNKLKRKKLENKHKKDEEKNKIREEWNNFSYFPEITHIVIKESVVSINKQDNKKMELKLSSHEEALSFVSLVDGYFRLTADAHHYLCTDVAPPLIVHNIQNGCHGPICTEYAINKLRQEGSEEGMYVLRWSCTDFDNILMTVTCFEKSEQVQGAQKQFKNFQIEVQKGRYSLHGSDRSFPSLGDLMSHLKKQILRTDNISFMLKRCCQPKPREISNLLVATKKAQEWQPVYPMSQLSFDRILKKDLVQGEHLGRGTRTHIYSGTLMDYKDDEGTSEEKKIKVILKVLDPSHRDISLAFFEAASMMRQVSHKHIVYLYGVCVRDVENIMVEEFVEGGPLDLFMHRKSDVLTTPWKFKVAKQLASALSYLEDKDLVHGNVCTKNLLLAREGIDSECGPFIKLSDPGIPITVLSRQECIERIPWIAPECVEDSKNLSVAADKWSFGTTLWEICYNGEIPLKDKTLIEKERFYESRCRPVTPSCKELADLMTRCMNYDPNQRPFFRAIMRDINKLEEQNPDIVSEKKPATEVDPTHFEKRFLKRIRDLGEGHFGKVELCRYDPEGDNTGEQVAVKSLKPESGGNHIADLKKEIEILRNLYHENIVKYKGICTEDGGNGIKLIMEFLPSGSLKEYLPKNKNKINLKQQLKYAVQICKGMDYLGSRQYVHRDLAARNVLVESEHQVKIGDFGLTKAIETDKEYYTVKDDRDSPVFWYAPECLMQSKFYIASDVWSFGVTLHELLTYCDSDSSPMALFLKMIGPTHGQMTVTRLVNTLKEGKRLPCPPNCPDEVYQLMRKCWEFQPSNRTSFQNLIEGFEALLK

In the case of `COC1(c2cc(-c3cn(C(C#N)C(C)C)c(=O)c4c(N)n[nH]c34)nn2C)CCC(F)(F)CC1` (centres unmarked) [Example 137, 2-(3-amino-7-(5-(4,4-difluoro-1-methoxycyclohexyl)-1-methyl-1H-pyrazol-3-yl)-4-oxo-1,4-dihydro-5H-pyrazolo[4,3-c]pyridin-5-yl)-3-methylbutanenitrile], the inhibition at 1 µM at JAK2 and at TYK2 was 99% in each case. Besides, the “JAK1 enzyme inhibitory activity (%, 1 μM)” value at JAK1 came to 92%. The “JAK3 enzyme inhibitory activity (%, 1 μM)” value on JAK3 is 98%.

With `COC1(c2cc(-c3cn(-c4c(F)cccc4F)c(=O)c4c(N)n[nH]c34)nn2C)CN(S(C)(=O)=O)C1` [Example 132, 3-amino-5-(2,6-difluorophenyl)-7-(5-(3-methoxy-1-(methylsulfonyl)azetidin-3-yl)-1-methyl-1H-pyrazol-3-yl)-1,5-dihydro-4H-pyrazolo[4,3-c]pyridin-4-one], the inhibition at 1 µM was found to be 98% on JAK2, 94% on JAK1, 100% at TYK2 and 99% at JAK3.

Regarding `CN(C[C@H]1CCCN1c1cc(-c2cn(C(C3CC3)C3CC3)c(=O)c3c(N)n[nH]c23)nn1C)C(=O)OC(C)(C)C` [Example 171, tert-butyl(((2R)-1-(3-(3-amino-5-(dicyclopropylmethyl)-4-oxo-4,5-dihydro-1H-pyrazolo[4,3-c]pyridin-7-yl)-1-methyl-1H-pyrazol-5-yl)pyrrolidin-2-yl)methyl)methylcarbamate], the inhibition at 1 µM was 94% at JAK2, 93% on JAK1, 98% at TYK2 and 98% at JAK3.

In the case of `CC(C)[C@H](C)n1cc(-c2cc(C3CCOCC3)n(C)n2)c2[nH]nc(N)c2c1=O` [Example 58], the inhibition at 1 µM at JAK2 was determined as 99%; on JAK1, 97%; at TYK2 it was 100%; at JAK3, 100%.

`COC[C@H]1CCCN1c1cc(-c2cn([C@@H](C)C(C)C)c(=O)c3c(N)n[nH]c23)nn1C` [Example 135, 3-amino-7-(5-((2R)-2-(methoxymethyl)pyrrolidin-1-yl)-1-methyl-1H-pyrazol-3-yl)-5-((2S)-3-methylbutan-2-yl)-1,5-dihydro-4H-pyrazolo[4,3-c]pyridin-4-one]: the inhibition at 1 µM was 98% on JAK2, 96% on JAK1, 100% at TYK2 and 99% on JAK3.

Consider `CC(C)[C@H](C)n1cc(-c2cc(N3CCC(C)(O)CC3)n(C)n2)c2[nH]nc(N)c2c1=O` [Example 18, 3-amino-7-(5-(4-hydroxy-4-methylpiperidin-1-yl)-1-methyl-1H-pyrazol-3-yl)-5-((2S)-3-methylbutan-2-yl)-1,5-dihydro-4H-pyrazolo[4,3-c]pyridin-4-one], for which the inhibition at 1 µM on JAK2 came out at 98%; on JAK1, 96%; at TYK2, 99%; on JAK3 it was 99%.

As for `C[C@@H](C1CC1)n1cc(-c2cc(N3CCS(=O)(=O)CC3)n(C)n2)c2[nH]nc(N)c2c1=O` [Example 96, 3-amino-5-((1S)-1-cyclopropylethyl)-7-(5-(1,1-dioxidothiomorpholin-4-yl)-1-methyl-1H-pyrazol-3-yl)-1,5-dihydro-4H-pyrazolo[4,3-c]pyridin-4-one], the inhibition at 1 µM on JAK2 was determined as 100%; on JAK1, 99%; on TYK2, 100%; on JAK3, 100%.

As to `CC(C)[C@H](C)n1cc(-c2cc(C(C)(C)CO)n(C)n2)c2[nH]nc(N)c2c1=O` [Example 3, 3-amino-7-(5-(1-hydroxy-2-methylpropan-2-yl)-1-methyl-1H-pyrazol-3-yl)-5-((2S)-3-methylbutan-2-yl)-1,5-dihydro-4H-pyrazolo[4,3-c]pyridin-4-one], the inhibition at 1 µM on JAK2 came to 99%; on JAK1, 98%; at TYK2 it was 100%; on JAK3, 100%.

Regarding `CC(C)[C@H](C)n1cc(-c2cc(N3CCCC3CN(C)C)n(C)n2)c2[nH]nc(N)c2c1=O` (stereo partly drawn) [Example 103, 3-amino-7-(5-(2-((dimethylamino)methyl)pyrrolidin-1-yl)-1-methyl-1H-pyrazol-3-yl)-5-((2S)-3-methylbutan-2-yl)-1,5-dihydro-4H-pyrazolo[4,3-c]pyridin-4-one], the inhibition at 1 µM amounted to 93% at JAK2, 96% on TYK2 and 97% at JAK3. In addition, the “JAK1 enzyme inhibitory activity (%, 1 μM)” value at JAK1 is given as 51%.

`Cn1nc(-c2cn(-c3c(F)cccc3F)c(=O)c3c(N)n[nH]c23)cc1N1CCC(C#N)CC1` [Example 141, 1-(3-(3-amino-5-(2,6-difluorophenyl)-4-oxo-4,5-dihydro-1H-pyrazolo[4,3-c]pyridin-7-yl)-1-methyl-1H-pyrazol-5-yl)piperidine-4-carbonitrile]: the inhibition at 1 µM worked out at 99% on JAK2, 98% on JAK1, 100% on TYK2 and 100% at JAK3.

On to `CC(C)[C@H](C)n1cc(-c2cc(N3CCC(C(C)(C)O)CC3)n(C)n2)c2[nH]nc(N)c2c1=O` [Example 15, 3-amino-7-(5-(4-(2-hydroxypropan-2-yl)piperidin-1-yl)-1-methyl-1H-pyrazol-3-yl)-5-((2S)-3-methylbutan-2-yl)-1,5-dihydro-4H-pyrazolo[4,3-c]pyridin-4-one], for which the inhibition at 1 µM at JAK2 came out at 99%; at JAK1 it was 97%; on TYK2, 100%; at JAK3, 100%.

In the case of `CC(C)C(C#N)n1cc(-c2cc(N3CCOCC3)n(C)n2)c2[nH]nc(N)c2c1=O` (centres unmarked) [Example 114, 2-(3-amino-7-(1-methyl-5-(morpholin-4-yl)-1H-pyrazol-3-yl)-4-oxo-1,4-dihydro-5H-pyrazolo[4,3-c]pyridin-5-yl)-3-methylbutanenitrile], the “JAK2 enzyme inhibitory activity (%, 1 μM)” value on JAK2 (1 µM) is given as 74%. The “JAK1 enzyme inhibitory activity (%, 1 μM)” value at JAK1 is on record as 68%. Further, the “TYK2 enzyme inhibitory activity (%, 1 μM)” value at TYK2 (1 µM) turned out to be 95%. For the same compound, at JAK3, the “JAK3 enzyme inhibitory activity (%, 1 μM)” value is recorded as 84%.

As for `Cn1nc(-c2cn(C3CCCC3(C)C)c(=O)c3c(N)n[nH]c23)cc1CN1CCS(=O)(=O)CC1` (centres unmarked) [Example 74, 3-amino-5-(2,2-dimethylcyclopentyl)-7-(5-((1,1-dioxidothiomorpholin-4-yl)methyl)-1-methyl-1H-pyrazol-3-yl)-1,5-dihydro-4H-pyrazolo[4,3-c]pyridin-4-one], the inhibition at 1 µM was 100% at JAK2, 99% at TYK2 and 99% on JAK3. Besides, the “JAK1 enzyme inhibitory activity (%, 1 μM)” value on JAK1 was found to be 98%.

Regarding `CC1CCCCC1n1cc(-c2cc(N3CCOCC3)n(C)n2)c2[nH]nc(N)c2c1=O` (racemic) [Example 146, 3-amino-5-(2-methylcyclohexyl)-7-(1-methyl-5-(morpholin-4-yl)-1H-pyrazol-3-yl)-1,5-dihydro-4H-pyrazolo[4,3-c]pyridin-4-one], the inhibition at 1 µM on JAK2 worked out at 99%; on JAK1 it was 99%; at TYK2, 100%; at JAK3, 100%.
